Tested on: participants with SSc-RP
Assay: Average severity of weekly RP attacks (VAS 0-10 cm scale)
Format: in vivo, human
From the text: The absolute change in average severity of weekly RP attacks (VAS 0-10 cm scale) from baseline to the end of each Dosing Period was and will be a secondary outcome variable. The sponsor-developed participant-informed diary will be used to record data. Average severity of weekly RP attacks is defined as the total severity scores of RP attacks divided by total number of RP attacks within the last 7 days of each dosing period. Total severity scores of RP attacks during the last 7 days of screening period divided by the total number of RP attacks will be used as baseline for the analysis of all periods. The variable will be calculated similar to frequency data as before.

[1] = Cilnidipine 20 mg, ITT Population - Part A
[2] = Cilnidipine 20 mg, first Baseline RCS subgroup block (not named), ITT Part A
[3] = Cilnidipine 20 mg, first Baseline RCS subgroup block (not named), ITT Part A, score 0-10
[4] = Excluding Outliers, Cilnidipine 10 mg, first Baseline RCS subgroup block (not named), ITT Part A
[5] = Excluding Outliers, Cilnidipine 10 mg, first Baseline RCS subgroup block (not named), ITT Part A, score 0-10
[6] = Excluding Outliers, Cilnidipine 20 mg, first Baseline RCS subgroup block (not named), ITT Part A
[7] = Excluding Outliers, Cilnidipine 20 mg, first Baseline RCS subgroup block (not named), ITT Part A, score 0-10
[8] = Excluding Outliers, Pooled Cilnidipine 10 mg and Cilnidipine 10 mg + Tadalafil 5 mg, first Baseline RCS subgroup block (not named), ITT Part A
[9] = Excluding Outliers, Pooled Cilnidipine 10 mg and Cilnidipine 10 mg + Tadalafil 5 mg, first Baseline RCS subgroup block (not named), ITT Part A, score 0-10
[10] = Excluding Outliers, Pooled Cilnidipine 10 mg and Cilnidipine 10 mg + Tadalafil 5 mg, second Baseline RCS subgroup block (not named), ITT Part A
[11] = Excluding Outliers, Pooled Cilnidipine 10 mg and Cilnidipine 10 mg + Tadalafil 5 mg, second Baseline RCS subgroup block (not named), ITT Part A, score 0-10
[12] = Excluding Outliers, Pooled Cilnidipine 20 mg and Cilnidipine 20 mg + Tadalafil 5 mg, first Baseline RCS subgroup block (not named), ITT Part A
[13] = Excluding Outliers, Pooled Cilnidipine 20 mg and Cilnidipine 20 mg + Tadalafil 5 mg, first Baseline RCS subgroup block (not named), ITT Part A, score 0-10
[14] = Excluding Outliers, Pooled Cilnidipine 20 mg and Cilnidipine 20 mg + Tadalafil 5 mg, second Baseline RCS subgroup block (not named), ITT Part A
[15] = Excluding Outliers, Pooled Cilnidipine 20 mg and Cilnidipine 20 mg + Tadalafil 5 mg, second Baseline RCS subgroup block (not named), ITT Part A, score 0-10
[16] = Excluding Outliers, Pooled Cilnidipine, first Baseline RCS subgroup block (not named), ITT Part A
[17] = Excluding Outliers, Pooled Cilnidipine, first Baseline RCS subgroup block (not named), ITT Part A, score 0-10
[18] = Pooled (over cilnidipine doses), Excluding Outliers, ITT Population - Part A
[19] = Pooled (over cilnidipine doses), Excluding Outliers, by Baseline RCS, first subgroup, ITT Population - Part A
[20] = Pooled (over cilnidipine doses), ITT Population - Part A

COCCOC(=O)C1=C(C)NC(C)=C(C(=O)OC/C=C/c2ccccc2)C1c1cccc([N+](=O)[O-])c1 (stereo not shown) [Cilnidipine, cilnidipine]
Average Severity of Weekly RP Attacks (All Attacks), Change from Baseline, Median [1]: −1.07
Average Severity of Weekly RP Attacks (All Attacks), Mean [1]: 2.30
Average Severity of Weekly RP Attacks (All Attacks), Median [1]: 2.30
Average Severity of Weekly RP Attacks (All Attacks), Percent Change from Baseline, Mean [1]: −27.26%
Average Severity of Weekly RP Attacks (All Attacks), Percent Change from Baseline, Median [1]: −27.26%
Average Severity of Weekly RP Attacks (All Attacks), Percent Change from Baseline, Mean [2]: −27.26%
Average Severity of Weekly RP Attacks (All Attacks), Percent Change from Baseline, Median [2]: −27.26%
Average Severity of Weekly RP Attacks (All Attacks), Change from Baseline, Mean [3]: −1.07
Average Severity of Weekly RP Attacks (All Attacks), Change from Baseline, Median [3]: −1.07
Average Severity of Weekly RP Attacks (All Attacks), Mean [3]: 2.30
Average Severity of Weekly RP Attacks (All Attacks), Median [3]: 2.30
Mean % reduction in severity (Cilnidipine (20 mg) (n = 3)): 35.5%
Mean severity at baseline (Cilnidipine (20 mg) (n = 3)): 3.7
Severity (Cilnidipine (20 mg) (n = 3)): −36%
Average Severity of Weekly RP Attacks (All Attacks), Percent Change from Baseline, Mean [4]: 0.55%
Average Severity of Weekly RP Attacks (All Attacks), Percent Change from Baseline, Median [4]: 0.55%
Average Severity of Weekly RP Attacks (All Attacks), Change from Baseline, Mean [5]: 0.02
Average Severity of Weekly RP Attacks (All Attacks), Change from Baseline, Median [5]: 0.02
Average Severity of Weekly RP Attacks (All Attacks), Mean [5]: 3.05
Average Severity of Weekly RP Attacks (All Attacks), Median [5]: 3.05
Average Severity of Weekly RP Attacks (All Attacks), Percent Change from Baseline, Mean [6]: −27.26%
Average Severity of Weekly RP Attacks (All Attacks), Percent Change from Baseline, Median [6]: −27.26%
Average Severity of Weekly RP Attacks (All Attacks), Change from Baseline, Mean [7]: −1.07
Average Severity of Weekly RP Attacks (All Attacks), Change from Baseline, Median [7]: −1.07
Average Severity of Weekly RP Attacks (All Attacks), Mean [7]: 2.30
Average Severity of Weekly RP Attacks (All Attacks), Median [7]: 2.30
Average Severity of Weekly RP Attacks (All Attacks), Percent Change from Baseline, Mean [8]: −23.94%
Average Severity of Weekly RP Attacks (All Attacks), Percent Change from Baseline, Median [8]: −23.94%
Average Severity of Weekly RP Attacks (All Attacks), Change from Baseline, Mean [9]: −1.35
Average Severity of Weekly RP Attacks (All Attacks), Change from Baseline, Median [9]: −1.35
Average Severity of Weekly RP Attacks (All Attacks), Mean [9]: 2.97
Average Severity of Weekly RP Attacks (All Attacks), Median [9]: 2.97
Average Severity of Weekly RP Attacks (All Attacks), Percent Change from Baseline, Mean [10]: −21.20%
Average Severity of Weekly RP Attacks (All Attacks), Percent Change from Baseline, Median [10]: −21.20%
Average Severity of Weekly RP Attacks (All Attacks), Change from Baseline, Mean [11]: −1.32
Average Severity of Weekly RP Attacks (All Attacks), Change from Baseline, Median [11]: −1.32
Average Severity of Weekly RP Attacks (All Attacks), Mean [11]: 4.90
Average Severity of Weekly RP Attacks (All Attacks), Median [11]: 4.90
Average Severity of Weekly RP Attacks (All Attacks), Percent Change from Baseline, Mean [12]: −21.36%
Average Severity of Weekly RP Attacks (All Attacks), Percent Change from Baseline, Median [12]: −9.57%
Average Severity of Weekly RP Attacks (All Attacks), Change from Baseline, Mean [13]: −0.84
Average Severity of Weekly RP Attacks (All Attacks), Change from Baseline, Median [13]: −0.39
Average Severity of Weekly RP Attacks (All Attacks), Mean [13]: 2.78
Average Severity of Weekly RP Attacks (All Attacks), Median [13]: 2.40
Average Severity of Weekly RP Attacks (All Attacks), Percent Change from Baseline, Mean [14]: −23.23%
Average Severity of Weekly RP Attacks (All Attacks), Percent Change from Baseline, Median [14]: −23.23%
Average Severity of Weekly RP Attacks (All Attacks), Change from Baseline, Mean [15]: −1.53
Average Severity of Weekly RP Attacks (All Attacks), Change from Baseline, Median [15]: −1.53
Average Severity of Weekly RP Attacks (All Attacks), Mean [15]: 5.06
Average Severity of Weekly RP Attacks (All Attacks), Median [15]: 5.06
Average Severity of Weekly RP Attacks (All Attacks), Percent Change from Baseline, Mean [16]: −17.99%
Average Severity of Weekly RP Attacks (All Attacks), Percent Change from Baseline, Median [16]: −7.69%
Average Severity of Weekly RP Attacks (All Attacks), Change from Baseline, Mean [17]: −0.71
Average Severity of Weekly RP Attacks (All Attacks), Change from Baseline, Median [17]: −0.20
Average Severity of Weekly RP Attacks (All Attacks), Mean [17]: 2.55
Average Severity of Weekly RP Attacks (All Attacks), Median [17]: 2.40
Average Severity of Weekly RP Attacks (All Attacks), Change from Baseline, Mean [18]: −0.71
Average Severity of Weekly RP Attacks (All Attacks), Change from Baseline, Median [18]: −0.20
Average Severity of Weekly RP Attacks (All Attacks), Mean [18]: 2.55
Average Severity of Weekly RP Attacks (All Attacks), Median [18]: 2.40
Average Severity of Weekly RP Attacks (All Attacks), Percent Change from Baseline, Mean [18]: −17.99%
Average Severity of Weekly RP Attacks (All Attacks), Percent Change from Baseline, Median [18]: −7.69%
Average Severity of Weekly Symptomatic RP Attacks (Mean) [19]: 2.79
Average Severity of Weekly Symptomatic RP Attacks (Median) [19]: 2.40
Average Severity of Weekly Symptomatic RP Attacks, Change from Baseline, Mean [19]: −0.87
Average Severity of Weekly Symptomatic RP Attacks, Change from Baseline, Median [19]: −0.33
Average Severity of Weekly Symptomatic RP Attacks, Percent Change from Baseline, Mean [19]: −19.22%
Average Severity of Weekly Symptomatic RP Attacks, Percent Change from Baseline, Median [19]: −12.02%
Average Severity of Weekly RP Attacks (All Attacks), Change from Baseline, Mean [20]: −0.71
Average Severity of Weekly RP Attacks (All Attacks), Change from Baseline, Median [20]: −0.20
Average Severity of Weekly RP Attacks (All Attacks), Mean [20]: 2.55
Average Severity of Weekly RP Attacks (All Attacks), Median [20]: 2.40
Average Severity of Weekly RP Attacks (All Attacks), Percent Change from Baseline, Mean [20]: −17.99%

— US20240358693A1, “METHODS OF TREATING PAIN” (Aisa Pharma, Inc., priority 2023, published 2024)
